According to ChEMBL document CHEMBL4507280 (2021):

What was measured:
Details in all cases: Compound concentration 1000.0 nM
[1] = molecular target: Mitogen-activated protein kinase kinase kinase 12 (Homo sapiens) (UniProt Q12852)
[2] = molecular target: Ephrin type-A receptor 3 (Homo sapiens) (UniProt P29320)
[3] = molecular target: Wee1-like protein kinase (Homo sapiens) (UniProt P30291)
[4] = molecular target: Megakaryocyte-associated tyrosine-protein kinase (Homo sapiens) (UniProt P42679)
[5] = molecular target: Casein kinase II subunit alpha (Homo sapiens) (UniProt P68400)
[6] = molecular target: Muscle, skeletal receptor tyrosine-protein kinase (Homo sapiens) (UniProt O15146)
[7] = molecular target: 5'-AMP-activated protein kinase catalytic subunit alpha-2 (Homo sapiens) (UniProt P54646)
[8] = molecular target: Death-associated protein kinase 3 (Homo sapiens) (UniProt O43293)
[9] = molecular target: Calcium/calmodulin-dependent protein kinase type IV (Homo sapiens) (UniProt Q16566)
[10] = molecular target: Cyclin-dependent kinase 14 (Homo sapiens) (UniProt O94921)
[11] = molecular target: Serine/threonine-protein kinase pim-3 (Homo sapiens) (UniProt Q86V86)
[12] = molecular target: Mitotic checkpoint serine/threonine-protein kinase BUB1 (Homo sapiens) (UniProt O43683)
[13] = molecular target: Cyclin-dependent kinase 16 (Homo sapiens) (UniProt Q00536)
[14] = molecular target: Platelet-derived growth factor receptor alpha (Homo sapiens) (UniProt P16234)
[15] = molecular target: Cyclin-G-associated kinase (Homo sapiens) (UniProt O14976)
[16] = molecular target: Serine/threonine-protein kinase SIK1 (Homo sapiens) (UniProt P57059)
[17] = molecular target: Ephrin type-B receptor 3 (Homo sapiens) (UniProt P54753)
[18] = molecular target: Serine/threonine-protein kinase Nek7 (Homo sapiens) (UniProt Q8TDX7)
[19] = molecular target: Mitogen-activated protein kinase kinase kinase kinase 1 (Homo sapiens) (UniProt Q92918)
[20] = molecular target: Non-receptor tyrosine-protein kinase TYK2 (Homo sapiens) (UniProt P29597)
[21] = molecular target: Bone morphogenetic protein receptor type-1A (Homo sapiens) (UniProt P36894)
[22] = molecular target: Beta-adrenergic receptor kinase 1 (Homo sapiens) (UniProt P25098)
[23] = molecular target: Ephrin type-B receptor 6 (Homo sapiens) (UniProt O15197)
[24] = system: Phosphatidylinositol 4,5-bisphosphate 3-kinase catalytic subunit alpha isoform (Homo sapiens), P42336 [E545K]
[25] = system: Tyrosine-protein kinase ABL1 (Homo sapiens), P00519 [E255K]
[26] = molecular target: Tyrosine-protein kinase FRK (Homo sapiens) (UniProt P42685)
[27] = system: Tyrosine-protein kinase ABL1 (Homo sapiens), P00519 [F317I]
[28] = molecular target: Mitogen-activated protein kinase kinase kinase 10 (Homo sapiens) (UniProt Q02779)
[29] = molecular target: Citron Rho-interacting kinase (Homo sapiens) (UniProt O14578)
[30] = molecular target: cAMP-dependent protein kinase catalytic subunit alpha (Homo sapiens) (UniProt P17612)
[31] = molecular target: Ribosomal protein S6 kinase alpha-6 (Homo sapiens) (UniProt Q9UK32)
[32] = system: Phosphatidylinositol 4,5-bisphosphate 3-kinase catalytic subunit alpha isoform (Homo sapiens), P42336 [E542K]
[33] = molecular target: cAMP-dependent protein kinase catalytic subunit beta (Homo sapiens) (UniProt P22694)
[34] = molecular target: Cyclin-dependent kinase 13 (Homo sapiens) (UniProt Q14004)
[35] = molecular target: RAC-gamma serine/threonine-protein kinase (Homo sapiens) (UniProt Q9Y243)
[36] = molecular target: Phosphatidylinositol 3-kinase C2 domain-containing subunit gamma (Homo sapiens) (UniProt O75747)
[37] = molecular target: Death-associated protein kinase 1 (Homo sapiens) (UniProt P53355)
[38] = molecular target: SNF-related serine/threonine-protein kinase (Homo sapiens) (UniProt Q9NRH2)
[39] = molecular target: Fibroblast growth factor receptor 3 (Homo sapiens) (UniProt P22607)
[40] = molecular target: Serine/threonine-protein kinase RIO1 (Homo sapiens) (UniProt Q9BRS2)
[41] = molecular target: Mitogen-activated protein kinase 12 (Homo sapiens) (UniProt P53778)
[42] = system: Hepatocyte growth factor receptor (Homo sapiens), P08581 [Y1235D]
[43] = molecular target: Tyrosine-protein kinase Srms (Homo sapiens) (UniProt Q9H3Y6)
[44] = molecular target: Protein-tyrosine kinase 2-beta (Homo sapiens) (UniProt Q14289)
[45] = molecular target: Tyrosine-protein kinase ABL1 (Homo sapiens) (UniProt P00519)

Measured: residual activity

Mitotic checkpoint serine/threonine-protein kinase BUB1 (Homo sapiens), sequence (O43683 whole entry, looked up): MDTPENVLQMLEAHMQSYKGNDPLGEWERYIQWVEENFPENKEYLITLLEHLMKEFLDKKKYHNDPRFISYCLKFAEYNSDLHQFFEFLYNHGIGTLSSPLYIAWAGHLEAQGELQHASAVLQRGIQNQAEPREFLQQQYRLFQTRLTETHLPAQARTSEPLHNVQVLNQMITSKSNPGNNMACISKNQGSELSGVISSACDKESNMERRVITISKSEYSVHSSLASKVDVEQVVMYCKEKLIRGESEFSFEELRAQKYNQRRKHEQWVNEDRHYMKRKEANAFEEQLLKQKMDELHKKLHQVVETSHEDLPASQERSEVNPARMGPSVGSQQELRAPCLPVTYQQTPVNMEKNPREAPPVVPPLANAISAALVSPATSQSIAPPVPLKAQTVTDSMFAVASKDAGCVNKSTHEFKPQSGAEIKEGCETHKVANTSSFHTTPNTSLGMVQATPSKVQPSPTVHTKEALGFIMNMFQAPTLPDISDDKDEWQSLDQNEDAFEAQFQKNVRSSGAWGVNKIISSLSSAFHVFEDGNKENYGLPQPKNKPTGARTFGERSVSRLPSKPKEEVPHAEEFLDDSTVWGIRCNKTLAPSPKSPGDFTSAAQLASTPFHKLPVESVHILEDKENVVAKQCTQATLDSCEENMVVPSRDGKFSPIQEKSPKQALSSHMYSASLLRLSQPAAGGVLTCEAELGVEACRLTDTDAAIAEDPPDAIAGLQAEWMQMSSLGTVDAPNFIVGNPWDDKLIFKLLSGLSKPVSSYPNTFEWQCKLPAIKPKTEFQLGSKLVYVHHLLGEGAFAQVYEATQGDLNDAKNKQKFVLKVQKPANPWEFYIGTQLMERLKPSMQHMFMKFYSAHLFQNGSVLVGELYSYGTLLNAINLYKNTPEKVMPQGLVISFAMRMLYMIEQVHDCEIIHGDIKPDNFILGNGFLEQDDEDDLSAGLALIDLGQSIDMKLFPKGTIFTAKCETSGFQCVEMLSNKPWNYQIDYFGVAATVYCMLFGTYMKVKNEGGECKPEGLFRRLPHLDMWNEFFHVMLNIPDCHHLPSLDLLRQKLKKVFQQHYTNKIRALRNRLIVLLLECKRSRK
Cyclin-dependent kinase 16 (Homo sapiens), sequence (Q00536 whole entry): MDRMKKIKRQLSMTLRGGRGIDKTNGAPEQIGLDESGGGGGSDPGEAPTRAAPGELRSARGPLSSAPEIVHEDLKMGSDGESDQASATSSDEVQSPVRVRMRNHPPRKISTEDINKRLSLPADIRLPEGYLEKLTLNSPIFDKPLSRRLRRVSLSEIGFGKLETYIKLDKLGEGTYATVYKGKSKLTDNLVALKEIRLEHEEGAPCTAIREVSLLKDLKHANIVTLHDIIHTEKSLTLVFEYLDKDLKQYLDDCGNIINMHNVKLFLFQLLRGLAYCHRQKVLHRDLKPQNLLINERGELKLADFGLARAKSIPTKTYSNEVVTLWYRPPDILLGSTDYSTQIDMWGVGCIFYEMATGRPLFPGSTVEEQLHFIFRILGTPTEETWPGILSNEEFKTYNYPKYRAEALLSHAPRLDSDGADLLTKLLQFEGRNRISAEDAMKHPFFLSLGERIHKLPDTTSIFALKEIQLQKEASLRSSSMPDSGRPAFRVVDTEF
Calcium/calmodulin-dependent protein kinase type IV (Homo sapiens), sequence (Q16566 whole entry): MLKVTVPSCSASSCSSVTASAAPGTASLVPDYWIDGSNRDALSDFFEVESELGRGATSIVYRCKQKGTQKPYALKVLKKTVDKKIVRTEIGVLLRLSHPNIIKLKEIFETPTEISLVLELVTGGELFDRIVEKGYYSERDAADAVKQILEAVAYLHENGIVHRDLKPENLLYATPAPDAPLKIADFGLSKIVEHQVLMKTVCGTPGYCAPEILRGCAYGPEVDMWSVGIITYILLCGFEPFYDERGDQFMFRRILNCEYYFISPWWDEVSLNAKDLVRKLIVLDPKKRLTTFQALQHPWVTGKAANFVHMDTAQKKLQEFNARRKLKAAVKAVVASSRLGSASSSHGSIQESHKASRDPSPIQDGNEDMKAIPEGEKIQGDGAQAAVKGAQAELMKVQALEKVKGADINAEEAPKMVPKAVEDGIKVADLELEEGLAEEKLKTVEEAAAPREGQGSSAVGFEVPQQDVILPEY
Ephrin type-A receptor 3 (Homo sapiens), sequence (P29320 whole entry): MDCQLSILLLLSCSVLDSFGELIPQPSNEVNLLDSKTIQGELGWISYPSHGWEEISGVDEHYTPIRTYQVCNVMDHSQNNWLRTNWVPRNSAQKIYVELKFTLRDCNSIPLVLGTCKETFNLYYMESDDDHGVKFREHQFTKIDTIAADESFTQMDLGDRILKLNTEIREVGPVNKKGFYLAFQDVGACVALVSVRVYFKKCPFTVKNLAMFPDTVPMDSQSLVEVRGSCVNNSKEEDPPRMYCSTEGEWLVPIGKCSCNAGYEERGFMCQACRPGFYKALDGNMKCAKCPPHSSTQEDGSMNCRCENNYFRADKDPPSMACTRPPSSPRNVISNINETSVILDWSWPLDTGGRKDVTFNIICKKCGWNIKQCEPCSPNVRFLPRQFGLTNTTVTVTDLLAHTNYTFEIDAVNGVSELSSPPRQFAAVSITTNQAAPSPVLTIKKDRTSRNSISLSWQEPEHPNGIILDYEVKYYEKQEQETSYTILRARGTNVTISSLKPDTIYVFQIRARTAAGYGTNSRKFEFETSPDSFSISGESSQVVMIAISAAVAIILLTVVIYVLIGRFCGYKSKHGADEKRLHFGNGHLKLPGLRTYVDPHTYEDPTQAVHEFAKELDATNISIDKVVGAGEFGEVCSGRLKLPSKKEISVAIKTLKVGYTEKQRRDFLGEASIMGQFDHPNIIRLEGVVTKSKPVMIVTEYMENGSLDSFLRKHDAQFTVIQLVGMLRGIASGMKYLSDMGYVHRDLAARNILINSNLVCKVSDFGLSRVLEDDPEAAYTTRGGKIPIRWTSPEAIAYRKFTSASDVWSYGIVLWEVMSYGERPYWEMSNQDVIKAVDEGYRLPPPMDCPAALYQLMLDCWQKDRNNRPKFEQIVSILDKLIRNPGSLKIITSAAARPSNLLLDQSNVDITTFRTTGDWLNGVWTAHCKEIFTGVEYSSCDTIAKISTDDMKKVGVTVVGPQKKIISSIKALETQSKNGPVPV
Platelet-derived growth factor receptor alpha (Homo sapiens), sequence (P16234 whole entry): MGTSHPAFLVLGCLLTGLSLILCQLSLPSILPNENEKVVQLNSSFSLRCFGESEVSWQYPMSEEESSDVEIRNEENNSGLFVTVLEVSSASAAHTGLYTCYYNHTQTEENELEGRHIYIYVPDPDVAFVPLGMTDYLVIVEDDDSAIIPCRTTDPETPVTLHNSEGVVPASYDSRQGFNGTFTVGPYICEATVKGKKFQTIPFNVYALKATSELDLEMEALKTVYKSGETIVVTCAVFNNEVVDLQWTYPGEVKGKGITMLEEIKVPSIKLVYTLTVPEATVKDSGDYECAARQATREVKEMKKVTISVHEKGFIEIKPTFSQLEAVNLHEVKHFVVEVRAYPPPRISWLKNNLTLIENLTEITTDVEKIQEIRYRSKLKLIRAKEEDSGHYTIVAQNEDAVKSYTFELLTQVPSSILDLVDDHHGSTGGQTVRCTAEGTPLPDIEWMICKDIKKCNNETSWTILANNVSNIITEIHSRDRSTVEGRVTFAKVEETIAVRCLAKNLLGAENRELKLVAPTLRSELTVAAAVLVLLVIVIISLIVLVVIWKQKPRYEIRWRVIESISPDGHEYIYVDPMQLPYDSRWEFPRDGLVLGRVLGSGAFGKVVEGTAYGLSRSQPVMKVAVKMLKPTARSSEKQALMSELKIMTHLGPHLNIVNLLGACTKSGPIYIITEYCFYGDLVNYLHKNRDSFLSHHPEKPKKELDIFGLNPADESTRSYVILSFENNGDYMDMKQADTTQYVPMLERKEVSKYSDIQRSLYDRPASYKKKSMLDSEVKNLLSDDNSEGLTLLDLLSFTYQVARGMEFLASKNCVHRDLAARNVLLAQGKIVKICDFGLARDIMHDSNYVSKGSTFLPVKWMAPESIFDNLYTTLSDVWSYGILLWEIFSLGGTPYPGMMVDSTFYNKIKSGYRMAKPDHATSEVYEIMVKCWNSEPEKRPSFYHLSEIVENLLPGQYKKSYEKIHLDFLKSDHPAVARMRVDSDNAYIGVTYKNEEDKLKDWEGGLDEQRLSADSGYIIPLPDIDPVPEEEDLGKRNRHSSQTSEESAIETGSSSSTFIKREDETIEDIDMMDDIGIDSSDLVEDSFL
Death-associated protein kinase 3 (Homo sapiens), sequence (O43293 whole entry, looked up): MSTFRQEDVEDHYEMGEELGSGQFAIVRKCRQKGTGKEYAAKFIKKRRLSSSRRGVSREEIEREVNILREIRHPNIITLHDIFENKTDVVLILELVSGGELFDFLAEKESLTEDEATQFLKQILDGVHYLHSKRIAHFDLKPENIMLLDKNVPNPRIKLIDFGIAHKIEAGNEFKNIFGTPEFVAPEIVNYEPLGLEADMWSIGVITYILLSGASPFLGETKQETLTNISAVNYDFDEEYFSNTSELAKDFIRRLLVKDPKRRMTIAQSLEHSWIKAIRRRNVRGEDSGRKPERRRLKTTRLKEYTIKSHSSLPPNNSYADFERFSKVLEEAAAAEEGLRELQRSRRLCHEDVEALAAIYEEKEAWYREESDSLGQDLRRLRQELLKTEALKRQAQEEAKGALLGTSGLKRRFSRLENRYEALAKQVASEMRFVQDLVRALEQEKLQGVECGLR

CCC(=O)N[C@H]1CC[C@@H](C(=O)N(C)c2ccc(-c3nc4ccccc4o3)cc2)C1 [BI 99179]
inactive: [1] 100% | [2] 100% | [3] 100% | [4] 100% | [5] 74% | [6] 100% | [7] 88% | [8] 95% | [9] 88% | [10] 92% | [11] 100% | [12] 74% | [13] 88% | [14] 85% | [15] 100% | [16] 89% | [17] 76% | [18] 98% | [19] 100% | [20] 83% | [21] 88% | [22] 66% | [23] 100% | [24] 74% | [25] 75% | [26] 100% | [27] 86% | [28] 91% | [29] 99% | [30] 100% | [31] 92% | [32] 77% | [33] 100% | [34] 100% | [35] 100% | [36] 86% | [37] 96% | [38] 100% | [39] 98% | [40] 99% | [41] 67% | [42] 100% | [43] 89% | [44] 100% | [45] 72%

CCC(=O)N[C@@H]1CC[C@H](C(=O)N(C)c2ccc(-c3nc4ccccc4o3)cc2)C1 [BI 99990]
inactive: [1] 100% | [2] 100% | [3] 99% | [4] 100% | [5] 98% | [6] 100% | [7] 74% | [8] 100% | [9] 100% | [10] 100% | [11] 96% | [12] 89% | [13] 100% | [14] 86% | [15] 100% | [16] 95% | [17] 100% | [18] 100% | [19] 100% | [20] 100% | [21] 96% | [22] 100% | [23] 100% | [24] 75% | [25] 100% | [26] 100% | [27] 76% | [28] 78% | [29] 93% | [30] 100% | [31] 100% | [32] 84% | [33] 100% | [34] 100% | [35] 100% | [36] 57% | [37] 100% | [38] 100% | [39] 100% | [40] 100% | [41] 73% | [42] 100% | [43] 84% | [44] 100% | [45] 96%
